Experimental data from patent publication US20250297035A1, “A PEPTIDE AND THE SELECTION METHOD THEREOF” (THE HONG KONG UNIVERSITY OF SCIENCE AND TECHNOLOGY, priority 2021, published 2025).
Where two headings read alike, the source gives them in different places. Where a SMILES comes first, the peptide text is derived from it. [ ]: non-standard residue; d: D form. The star is where a group is joined. Fmoc = O=C(OCC1c2ccccc2-c2ccccc21)*; 12Ado = NCCCCCCCCCCCC(=O)O; StBu = CC(C)(C)S*

Test: MTT assay, cytotoxicity of the peptide
Type: cell-based
Conditions: read-out: cell viability
From the text: MTT assay was applied to evaluate the cytotoxicity effect of the peptide on HeLa, MCF-7, SK-N-MC, HEK293 and RAW264.7 cells (FIG. 12).

Measured: viability

CC(C)[C@H](NC(=O)[C@H](CCCCN)NC(=O)[C@H](CCCCN)NC(=O)[C@H](CCCCN)NC(=O)[C@H](CCCCN)NC(=O)[C@H](CCCCN)NC(=O)[C@@H]1CCCN1C(=O)OCC1c2ccccc2-c2ccccc21)C(=O)NCC(=O)N[C@@H](Cc1c[nH]cn1)C(=O)N[C@@H](Cc1c[nH]cn1)C(=O)N[C@@H](Cc1c[nH]cn1)C(=O)N[C@@H](Cc1c[nH]cn1)C(=O)NCCCCCCCCCCCC(=O)N[C@@H](CSSC(C)(C)C)C(=O)N[C@@H](Cc1c[nH]cn1)C(=O)N[C@@H](Cc1c[nH]cn1)C(=O)N[C@@H](CSSC(C)(C)C)C(=O)N[C@@H](CSSC(C)(C)C)C(=O)N[C@@H](Cc1c[nH]cn1)C(=O)N[C@@H](Cc1c[nH]cn1)C(=O)N[C@@H](CSSC(C)(C)C)C(=O)NCC(=O)N[C@@H](CO)C(=O)N1CCC[C@H]1C(=O)N[C@@H](Cc1c[nH]cn1)C(=O)N[C@@H](Cc1c[nH]cn1)C(=O)N[C@@H](CC(=O)O)C(=O)O [peptide_13, Fmoc-PKKKKKVG-HHHH (SEQ ID NO: 31)-C12-CstBuHHCstBuCstBuHHCstBuGSPHHD (SEQ ID NO: 39)] (Fmoc-PKKKKKVGHHHH[12Ado]C(StBu)HHC(StBu)C(StBu)HHC(StBu)GSPHHD-OH; C-terminus assumed)
> 80%: human, HEK293 cells, peptide concentration up to 4 μM | human, HeLa cells, peptide concentration up to 8 μM | human, MCF-7 cells, peptide concentration up to 8 μM | human, SK-N-MC cells, peptide concentration up to 4 μM | mouse, RAW264.7 cells, peptide concentration up to 4 μM
